Measured values as given in patent publication US10723741B1, “DNA polymerase IIIC inhibitors and use thereof” (Acurx Pharmaceuticals, LLC, priority 2018, dated 2020).
Converted amounts (≈) assume the structure as drawn. Read-outs that look alike come from different tables or passages of the source.

Assays:
Format in all cases: cell-based
[1] = tested on: Staphylococcus aureus NRS384 (MRSA); assay: Broth microdilution MIC, S. aureus NRS384 (MRSA); parameters: MIC NRS 384 (MRSA): unit not given here; settings: for MIC: Staphylococcus aureus, read-out: MIC NRS 384 (MRSA)
Summary of the method: (§1)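 Broth microdilution in strain-specific test medium with ~5.0×10^5 cfu/ml inoculum, 1% DMSO and two-fold compound dilutions from 64 to 0.0625 μg/ml. Plates were held 20 hours at 37° C in ambient air. S. pneumoniae colonies were grown beforehand on blood agar in 5% CO2.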

[2] = tested on: Staphylococcus aureus ATCC 29213 (MSSA); assay: Broth microdilution MIC, S. aureus ATCC 29213 (MSSA); settings: read-out: MIC S. aureus ATCC 29213 (MSSA)
Summary of the method: as §1

[3] = tested on: Enterococcus faecalis ATCC 29212; assay: Broth microdilution MIC, E. faecalis ATCC 29212; settings: read-out: MIC E. faecalis ATCC 29212
Summary of the method: as §1

[4] = tested on: Enterococcus faecium ATCC 700221 (VRE); assay: Broth microdilution MIC, E. faecium ATCC 700221 (VRE); parameters: MIC E. faecium ATCC 700221 (VRE): unit: ug/mL; settings: for MIC: Enterococcus faecium, read-out: MIC E. faecium ATCC 700221 (VRE)
Summary of the method: as §1

[5] = tested on: Streptococcus pneumoniae ATCC 49619; assay: Broth microdilution MIC, S. pneumoniae ATCC 49619; settings: read-out: MIC S. pneumoniae ATCC 49619
Summary of the method: as §1

[6] = tested on: Bacillus subtilis ATCC 6633; assay: Broth microdilution MIC, B. subtilis ATCC 6633; settings: read-out: MIC B. subtilis ATCC 6633
Summary of the method: as §1

[7] = tested on: Escherichia coli ATCC 25922; assay: Broth microdilution MIC, E. coli ATCC 25922 (MHIIB w & w/o 4 mM EDTA); settings: for MIC: Escherichia coli, read-out: MIC E. coli ATCC 25922; for MIC E. coli ATCC 25922 + 4 mM EDTA: with 4 mM EDTA
Summary of the method: as §1

[8] = broth microdilution, 37° C., 20 hours
[9] = ATCC29212, broth microdilution, 37° C., 20 hours
[10] = ATCC49619, broth microdilution, 37° C., 20 hours
[11] = ATCC6633, broth microdilution, 37° C., 20 hours
[12] = ATCC25922, without EDTA, broth microdilution, 37° C., 20 hours

SMILES | MIC ([1]; 20 h) | MIC ([2]; 20 h) | MIC ([3]; ATCC29212, 20 h) | MIC ([4]; 20 h) | MIC ([5]; ATCC49619, 20 h) | MIC ([6]; ATCC6633, 20 h) | MIC ([7]; ATCC25922, 20 h) | MIC E. coli ATCC 25922 + 4 mM EDTA [7, 8] | MIC ([1]; S. aureus NRS 384, broth microdilution, 37° C., 20 hours) | MIC [2, 8] | MIC [3, 9] | MIC [4, 8] | MIC [5, 10] | MIC [6, 11] | MIC [7, 12] | MIC [1, 8] | MIC NRS 384 (MRSA) [1, 8] | MIC E. faecium ATCC 700221 (VRE) [4, 8]
CC(C)(C)OC(=O)N1C[C@H](O)C[C@H]1C(=O)N1CCC(n2ncc3nc(NCc4ccc(Cl)c(Cl)c4)[nH]c(=O)c32)CC1 [Compound 275, (2S,4R)-tert-Butyl 2-(4-(5-((3,4-dichlorobenzyl)amino)-7-oxo-6,7-dihydro-1H-pyrazolo[4,3-d]pyrimidin-1-yl)piperidine-1-carbonyl)-4-hydroxypyrrolidine-1-carboxylate] | 32 µg/mL (≈ 52.8 µM) | 32 µg/mL (≈ 52.8 µM) | 16 µg/mL (≈ 26.4 µM) | 8 µg/mL (≈ 13.2 µM) | 8 µg/mL (≈ 13.2 µM) | 8 µg/mL (≈ 13.2 µM) | > 64 µg/mL | >64 µg/mL |  |  |  |  |  |  |  |  |  | 
O=c1[nH]c(NCc2ccc(Cl)c(Cl)c2)nc2cnn(CCOCCOP(=O)(O)O)c12 [Compound 296, 2-(2-(5-((3,4-dichlorobenzyl)amino)-7-oxo-6,7-dihydro-1H-pyrazolo[4,3-d]pyrimidin-1-yl)ethoxy)ethyl dihydrogen phosphate] |  |  |  |  |  |  |  | >64 µg/mL | > 64 µg/mL | > 64 µg/mL | > 64 µg/mL | 64 µg/mL | 8 µg/mL | 32 µg/mL | > 64 µg/mL |  |  | 
Cl.Cl.O=c1[nH]c(NCc2ccc(Cl)c(Cl)c2)nc2cnn(C3CCN(CC4CCCNC4)CC3)c12 (stereo not shown) [Compound 251, 5-((3,4-dichlorobenzyl)amino)-1-(1-(piperidin-3-ylmethyl)piperidin-4-yl)-1H-pyrazolo[4,3-d]pyrimidin-7(6H)-one dihydrochloride] |  |  |  |  |  |  |  | 64 µg/mL |  | 16 µg/mL | 16 µg/mL | 16 µg/mL | 8 µg/mL | 4 µg/mL | > 64 µg/mL | 16 µg/mL |  | 
[2H]C([2H])(Nc1nc2cnn(CCOCCO)c2c(=O)[nH]1)c1ccc(Cl)c(Cl)c1 [Compound 291, 5-[[dideuterio-(3,4-dichlorophenyl)methyl]amino]-1-[2-(2-hydroxyethoxy)ethyl]-6H-pyrazolo[4,3-d]pyrimidin-7-one] |  |  |  |  |  |  |  | >64 µg/mL |  | 16 µg/mL (≈ 40 µM) | 16 µg/mL (≈ 40 µM) | 4 µg/mL (≈ 9.99 µM) | 8 µg/mL (≈ 20 µM) | 4 µg/mL (≈ 9.99 µM) | > 64 µg/mL | 16 µg/mL (≈ 40 µM) |  | 
Cl.O=C(c1ccccn1)N1CCC(n2ncc3nc(NCc4ccc(Cl)c(Cl)c4)[nH]c(=O)c32)CC1 [Compound 255, 5-((3,4-Dichlorobenzyl)amino)-1-(1-picolinoylpiperidin-4-yl)-1H-pyrazolo[4,3-d]pyrimidin-7(6H)-one hydrochloride] |  |  |  |  |  |  |  | >64 µg/mL |  | 4 µg/mL | 4 µg/mL | 2 µg/mL | 2 µg/mL | 2 µg/mL | > 64 µg/mL | 4 µg/mL |  | 
O=c1[nH]c(NCc2ccc(Cl)c(Cl)c2)nc2c(Br)nn(CCOCCO)c12 [Compound 52, 3-bromo-5-((3,4-dichlorobenzyl)amino)-1-(2-(2-hydroxyethoxy)ethyl)-1H-pyrazolo[4,3-d]pyrimidin-7(6H)-one] |  |  |  |  |  |  |  | >64 µg/mL |  | 2 µg/mL (≈ 4.19 µM) | 4 µg/mL (≈ 8.38 µM) | 2 µg/mL (≈ 4.19 µM) | 16 µg/mL (≈ 33.5 µM) | 1 µg/mL (≈ 2.1 µM) | > 64 µg/mL | 4 µg/mL (≈ 8.38 µM) |  | 
Cl.O=c1[nH]c(NCc2ccc(Cl)c(Cl)c2)nc2cnn(CC3C(O)C4CCN3CC4)c12 (stereo not shown) [Compound 236, 5-((3,4-Dichlorobenzyl)amino)-1-((3-hydroxyquinuclidin-2-yl)methyl)-1H-pyrazolo[4,3-d]pyrimidin-7(6H)-one] |  |  |  |  |  |  |  | 64 µg/mL |  | > 64 µg/mL | 64 µg/mL | 64 µg/mL | 8 µg/mL | 32 µg/mL | > 64 µg/mL | > 64 µg/mL |  | 
COC(=O)CCn1ncc2nc(NCc3ccc(Cl)c(Cl)c3)[nH]c(=O)c21 [Compound 231, Methyl 3-(5-((3,4-dichlorobenzyl)amino)-7-oxo-6,7-dihydro-1H-pyrazolo[4,3-d]pyrimidin-1-yl)propanoate] |  |  |  |  |  |  |  | >64 µg/mL |  | 4 µg/mL (≈ 10.1 µM) | 4 µg/mL (≈ 10.1 µM) | 2 µg/mL (≈ 5.05 µM) | 4 µg/mL (≈ 10.1 µM) | 1 µg/mL (≈ 2.52 µM) | > 64 µg/mL | 2 µg/mL (≈ 5.05 µM) |  | 
CC(C)(C)NCCn1ncc2nc(NCc3ccc(Cl)c(Cl)c3)[nH]c(=O)c21 [Compound 62, 1-[2-(tert-Butylamino)ethyl]-5-[(3,4-dichlorophenyl)methylamino]-6H-pyrazolo[4,3-d]pyrimidin-7-one] |  |  |  |  |  |  |  | 32 µg/mL |  | 16 µg/mL (≈ 39.1 µM) | 8 µg/mL (≈ 19.5 µM) | 8 µg/mL (≈ 19.5 µM) | 4 µg/mL (≈ 9.77 µM) | 4 µg/mL (≈ 9.77 µM) | > 64 µg/mL | 16 µg/mL (≈ 39.1 µM) |  | 
COCCOCCn1cc2nc(NCc3ccc(Cl)c(Cl)c3)[nH]c(=O)c2n1 [Compound 137, 5-((3,4-Dichlorobenzyl)amino)-2-(2-(2-methoxyethoxy)ethyl)-2H-pyrazolo[4,3-d]pyrimidin-7(6H)-one] |  |  |  |  |  |  |  | >64 µg/mL |  | 32 µg/mL (≈ 77.6 µM) | 32 µg/mL (≈ 77.6 µM) | 16 µg/mL (≈ 38.8 µM) | 16 µg/mL (≈ 38.8 µM) | 16 µg/mL (≈ 38.8 µM) | > 64 µg/mL | 32 µg/mL (≈ 77.6 µM) |  | 
Cn1ncc2nc(NCc3cncs3)[nH]c(=O)c21 [Compound 20, 1-Methyl-5-((thiazol-5-ylmethyl)amino)-1H-pyrazolo[4,3-d]pyrimidin-7(6H)-one] |  |  |  |  |  |  |  | >64 µg/mL |  | > 64 µg/mL | > 64 µg/mL | > 64 µg/mL | > 64 µg/mL | > 64 µg/mL | > 64 µg/mL | > 64 µg/mL |  | 
CN(CCn1ncc2nc(NCc3ccc(Cl)c(Cl)c3)[nH]c(=O)c21)C(=O)c1cnoc1 [Compound 82, N-(2-(5-((3,4-dichlorobenzyl)amino)-7-oxo-6,7-dihydro-1H-pyrazolo[4,3-d]pyrimidin-1-yl)ethyl)-N-methylisoxazole-4-carboxamide] |  |  |  |  |  |  |  | >64 µg/mL |  | 16 µg/mL (≈ 34.6 µM) | 8 µg/mL (≈ 17.3 µM) | 4 µg/mL (≈ 8.65 µM) | 8 µg/mL (≈ 17.3 µM) | 8 µg/mL (≈ 17.3 µM) | > 64 µg/mL | 16 µg/mL (≈ 34.6 µM) |  | 
O=C(O)COCCn1cc2nc(NCc3ccc(Cl)c(Cl)c3)[nH]c(=O)c2n1 [Compound 141, 2-(2-(5-((3,4-Dichlorobenzyl)amino)-7-oxo-6,7-dihydro-2H-pyrazolo[4,3-d]pyrimidin-2-yl)ethoxy)acetic acid] |  |  |  |  |  |  |  | >64 µg/mL |  | > 64 µg/mL | > 64 µg/mL | > 64 µg/mL | > 64 µg/mL | > 64 µg/mL | > 64 µg/mL | > 64 µg/mL |  | 
Cl.N=C(N)NCCOCCn1ncc2nc(NCc3ccc(Cl)c(Cl)c3)[nH]c(=O)c21 [Compound 293, 1-(2-(2-(5-((3,4-Dichlorobenzyl)amino)-7-oxo-6,7-dihydro-1H-pyrazolo[4,3-d]pyrimidin-1-yl)ethoxy)ethyl)guanidine hydrochloride] |  |  |  |  |  |  |  | 32 µg/mL |  | 16 µg/mL | 64 µg/mL | > 64 µg/mL | 16 µg/mL | 8 µg/mL | > 64 µg/mL | 16 µg/mL |  | 
CC(C)(CCCn1ncc2nc(NCc3ccc(Cl)c(Cl)c3)[nH]c(=O)c21)C(=O)O [Compound 199, 5-(5-((3,4-Dichlorobenzyl)amino)-7-oxo-6,7-dihydro-1H-pyrazolo[4,3-d]pyrimidin-1-yl)-2,2-dimethylpentanoic acid] |  |  |  |  |  |  |  | >64. ug/ml |  | 16 µg/mL (≈ 36.5 µM) | 16 µg/mL (≈ 36.5 µM) | 8 µg/mL (≈ 18.3 µM) | 8 µg/mL (≈ 18.3 µM) | 32 µg/mL (≈ 73 µM) | > 64 µg/mL | 16 µg/mL (≈ 36.5 µM) |  | 
COC/C=C/Cn1ncc2nc(NCc3ccc(Cl)c(Cl)c3)[nH]c(=O)c21 [Compound 192, (E)-5-((3,4-dichlorobenzyl)amino)-1-(4-methoxybut-2-en-1-yl)-1H-pyrazolo[4,3-d]pyrimidin-7(6H)-one] |  |  |  |  |  |  |  | >64 µg/mL |  | 2 µg/mL (≈ 5.07 µM) | 4 µg/mL (≈ 10.1 µM) | 2 µg/mL (≈ 5.07 µM) | 4 µg/mL (≈ 10.1 µM) | 1 µg/mL (≈ 2.54 µM) | > 64 µg/mL | 2 µg/mL (≈ 5.07 µM) |  | 
O=c1[nH]c(NCc2ccc(Cl)c(Cl)c2)nc2cnn(CC3CCCO3)c12 (stereo not shown) [Compound 102, 5-((3,4-Dichlorobenzyl)amino)-1-((tetrahydrofuran-2-yl)methyl)-1H-pyrazolo[4,3-d]pyrimidin-7(6H)-one] |  |  |  |  |  |  |  | >64 µg/mL |  | 4 µg/mL (≈ 10.1 µM) | 4 µg/mL (≈ 10.1 µM) |  | 4 µg/mL (≈ 10.1 µM) | 1 µg/mL (≈ 2.54 µM) | > 64 µg/mL |  | 4/4 | 2/4
